Results from patent publication US20160333419A1, “GENE SIGNATURES ASSOCIATED WITH SENSITIVITY TO MDM2 INHIBITORS” (DAIICHI SANKYO COMPANY, LIMITED, priority 2014, published 2016).

Experiments:
Experiment in all cases: OncoPanel cytotoxicity assay
Format in all cases: cell-based
HeLa = conditions: Homo sapiens, 72 hour incubation
Description: (§1) Cells were grown in RPMI 1640, 10% FBS, 2 mM L-alanyl-L-Glutamine, 1 mM Na Pyruvate, or a special medium in a humidified atmosphere of 5% CO2 at 37° C. Cells were seeded into 384-well plates and incubated in a humidified atmosphere of 5% CO2 at 37° C. Test compounds were added 24 hours post cell seeding. At the same time, a time zero, untreated cell plate was generated as a control. After a 72 hour incubation period, cells were fixed and stained with nuclear dye to allow visualization of nuclei.
(§2) Compounds were serially diluted 3.16-fold and assayed over 10 concentrations of inhibitor in a final assay concentration of 0.1% DMSO from the highest test concentration specified in the sample information chapter. Automated fluorescence microscopy was carried out using a GE Healthcare InCell Analyzer 1000, and images were collected with a 4× objective. Twelve bit tiff images were acquired using the InCell Analyzer 1000 3.2 and analyzed with Developer Toolbox 1.6 software.
(§3) Cell proliferation was measured by the signal intensity of the incorporated nuclear dye. The cell proliferation assay output is referred to as the relative cell count. To determine the cell proliferation end point, the cell proliferation data output is transformed to percent of control (POC) using the following formula: […]
(§4) Relative cell count IC50 (IC50) is the test compound's concentration that produces 50% of the cell proliferation inhibitory response or 50% cytotoxicity level. IC50 values were calculated using nonlinear regression to fit data to a sigmoidal 4 point, 4 parameter One-Site dose response model, where: y (fit)=A+[(B−A)/(1+((C/x)̂D))]. Curve-fitting, IC50 calculations and report generation were performed using a custom data reduction engine MathIQ based software (AIM). […] In these cases, the IC50 values were expressed as 40 μM and 10 μM, respectively (Table 2).

MV-4-11 = conditions: Homo sapiens, MV4-11, 72 hour incubation
Description: as §1, §2, §3, §4

Colo 320 HSR = conditions: Homo sapiens, 72 hour incubation
Description: as §1, §2, §3, §4

HuP-T4 = conditions: Homo sapiens, 72 hour incubation
Description: as §1, §2, §3, §4

SW837 = conditions: Homo sapiens, 72 hour incubation
Description: as §1, §2, §3, §4

SW480 = conditions: Homo sapiens, 72 hour incubation
Description: as §1, §2, §3, §4

MALME3M = conditions: Homo sapiens, Malme-3M, 72 hour incubation
Description: as §1, §2, §3, §4

SK-BR-3 = conditions: Homo sapiens, 72 hour incubation
Description: as §1, §2, §3, §4

CRO-AP2 = conditions: Homo sapiens, 72 hour incubation
Description: as §1, §2, §3, §4

ST486 = conditions: Homo sapiens, 72 hour incubation
Description: as §1, §2, §3, §4

SW403 = conditions: Homo sapiens, SW-403, 72 hour incubation
Description: as §1, §2, §3, §4

BC-1 = conditions: Homo sapiens, BC1, 72 hour incubation
Description: as §1, §2, §3, §4

WiDr = conditions: Homo sapiens, 72 hour incubation
Description: as §1, §2, §3, §4

PC-3 = conditions: Homo sapiens, 72 hour incubation
Description: as §1, §2, §3, §4

SJRH30 = conditions: Homo sapiens, 72 hour incubation
Description: as §1, §2, §3, §4

SW-13 = conditions: Homo sapiens, SW13, 72 hour incubation
Description: as §1, §2, §3, §4

MC-IXC = conditions: Homo sapiens, 72 hour incubation
Description: as §1, §2, §3, §4

NCI-H460 = conditions: Homo sapiens, 72 hour incubation
Description: as §1, §2, §3, §4

HCT-15 = conditions: Homo sapiens, 72 hour incubation
Description: as §1, §2, §3, §4

HT1376 = conditions: Homo sapiens, HT-1376, 72 hour incubation
Description: as §1, §2, §3, §4

CFPAC-1 = conditions: Homo sapiens, 72 hour incubation
Description: as §1, §2, §3, §4

Hs 766T = conditions: Homo sapiens, Hs766T, 72 hour incubation
Description: as §1, §2, §3, §4

U2OS = conditions: Homo sapiens, 72 hour incubation
Description: as §1, §2, §3, §4

HuCCT1 = conditions: Homo sapiens, HuCCT-1, 72 hour incubation
Description: as §1, §2, §3, §4

L-428 = conditions: Homo sapiens, 72 hour incubation
Description: as §1, §2, §3, §4

SW1417 = conditions: Homo sapiens, 72 hour incubation
Description: as §1, §2, §3, §4

Capan-2 = conditions: Homo sapiens, 72 hour incubation
Description: as §1, §2, §3, §4

RKO = conditions: Homo sapiens, 72 hour incubation
Description: as §1, §2, §3, §4

TCCSUP = conditions: Homo sapiens, TCC-SUP, 72 hour incubation
Description: as §1, §2, §3, §4

CaOV3 = conditions: Homo sapiens, Caov-3, 72 hour incubation
Description: as §1, §2, §3, §4

ES-2 = conditions: Homo sapiens, 72 hour incubation
Description: as §1, §2, §3, §4

NCIH446 = conditions: Homo sapiens, NCI-H446, 72 hour incubation
Description: as §1, §2, §3, §4

RL95-2 = conditions: Homo sapiens, 72 hour incubation
Description: as §1, §2, §3, §4

A498 = conditions: Homo sapiens, 72 hour incubation
Description: as §1, §2, §3, §4

U-138MG = conditions: Homo sapiens, U138-MG, 72 hour incubation
Description: as §1, §2, §3, §4

SK-UT-1 = conditions: Homo sapiens, 72 hour incubation
Description: as §1, §2, §3, §4

769-P = conditions: Homo sapiens, 72 hour incubation
Description: as §1, §2, §3, §4

SW1088 = conditions: Homo sapiens, 72 hour incubation
Description: as §1, §2, §3, §4

With `CC[C@@H]1CNC2(CC2)CN1C(=O)[C@@H]1C[C@@H](F)CN1C(=O)C1=C(C(C)C)N2C(=N[C@@](C)(c3ccc(Cl)nc3)[C@H]2c2ccc(Cl)c(F)c2)S1` [Compound A, [(5R,6S)-5-(4-Chloro-3-fluorophenyl)-6-(6-chloropyridin-3-yl)-6-methyl-3-(propan-2-yl)-5,6-dihydroimidazo[2,1-b][1,3]thiazol-2-yl][(2S,4R)-2-{[(6R)-6-ethyl-4,7-diazaspiro[2.5]oct-7-yl]carbonyl}-4-fluoropyrrolidin-1-yl]methanone] the IC50 (HeLa) was greater than 40 µM, the IC50 (MV-4-11) was 0.372 µM and the IC50 (Colo 320 HSR) was greater than 40 µM. It also gave an IC50 (HuP-T4) greater than 40 µM, an IC50 (SW837) greater than 40 µM and an IC50 (SW480) greater than 40 µM. For the same compound, the IC50 (MALME3M) was 1.04 µM, the IC50 (SK-BR-3) was 27.7 µM and the IC50 (CRO-AP2) was 0.204 µM. It also gave an IC50 (ST486) of 24.3 µM, an IC50 (SW403) greater than 40 µM and an IC50 (BC-1) of 0.464 µM. For the same compound, the IC50 (WiDr) was 34.8 µM, the IC50 (PC-3) was greater than 40 µM and the IC50 (SJRH30) was greater than 40 µM. The IC50 (SW-13) was 8.33 µM, the IC50 (MC-IXC) was 22.7 µM and the IC50 (NCI-H460) was 0.515 µM. The IC50 (HCT-15) was 32 µM, the IC50 (HT1376) was 38.9 µM and the IC50 (CFPAC-1) was greater than 40 µM. It also gave an IC50 (Hs 766T) greater than 40 µM, an IC50 (U2OS) of 1.24 µM and an IC50 (HuCCT1) greater than 40 µM. It also gave an IC50 (L-428) greater than 40 µM, an IC50 (SW1417) greater than 40 µM and an IC50 (Capan-2) greater than 40 µM. For the same compound, the IC50 (RKO) was 0.654 µM, the IC50 (TCCSUP) was greater than 40 µM and the IC50 (CaOV3) was greater than 40 µM. The IC50 (ES-2) was 14.5 µM, the IC50 (NCIH446) was greater than 40 µM and the IC50 (RL95-2) was 13.8 µM. For the same compound, the IC50 (A498) was 1.71 µM, the IC50 (U-138MG) was greater than 40 µM and the IC50 (SK-UT-1) was greater than 40 µM. It also gave an IC50 (769-P) of 0.442 µM and an IC50 (SW1088) greater than 40 µM.

In the case of `CC1(C)CCC2(CC1)N[C@@H](C(=O)N[C@@H]1CC[C@@H](C(N)=O)OC1)[C@H](c1ccnc(Cl)c1F)[C@]21C(=O)Nc2cc(Cl)ccc21` [Compound B, (3′R,4′S,5′R)—N-[(3R,6S)-6-carbamoyltetrahydro-2H-pyran-3-yl]-6″-chloro-4′-(2-chloro-3-fluoropyridin-4-yl)-4,4-dimethyl-2″-oxo-1″,2″-dihydrodispiro[cyclohexane-1,2′-pyrrolidine-3′,3″-indole]-5′-carboxamide], the IC50 (HeLa) is reported as greater than 10 µM, the IC50 (MV-4-11) is reported as 0.0254 µM and the IC50 (Colo 320 HSR) is reported as greater than 10 µM. For the same compound, the IC50 (HuP-T4) was greater than 10 µM, the IC50 (SW837) was greater than 10 µM and the IC50 (SW480) was greater than 10 µM. It also gave an IC50 (MALME3M) of 0.0875 µM, an IC50 (SK-BR-3) greater than 10 µM and an IC50 (CRO-AP2) of 0.0191 µM. The IC50 (ST486) was 6.44 µM, the IC50 (SW403) was greater than 10 µM and the IC50 (BC-1) was 0.074 µM. For the same compound, the IC50 (WiDr) was 5.58 µM, the IC50 (PC-3) was greater than 10 µM and the IC50 (SJRH30) was 7.24 µM. The IC50 (SW-13) was 8.45 µM, the IC50 (MC-IXC) was 8.62 µM and the IC50 (NCI-H460) was 0.0664 µM. The IC50 (HCT-15) was greater than 10 µM, the IC50 (HT1376) was greater than 10 µM and the IC50 (CFPAC-1) was greater than 10 µM. For the same compound, the IC50 (Hs 766T) was greater than 10 µM, the IC50 (U2OS) was 0.248 µM and the IC50 (HuCCT1) was greater than 10 µM. The IC50 (L-428) was greater than 10 µM, the IC50 (SW1417) was greater than 10 µM and the IC50 (Capan-2) was greater than 10 µM. For the same compound, the IC50 (RKO) was 0.107 µM, the IC50 (TCCSUP) was greater than 10 µM and the IC50 (CaOV3) was greater than 10 µM. The IC50 (ES-2) was 6.3 µM, the IC50 (NCIH446) was greater than 10 µM and the IC50 (RL95-2) was 3.72 µM. For the same compound, the IC50 (A498) was 0.119 µM, the IC50 (U-138MG) was greater than 10 µM and the IC50 (SK-UT-1) was greater than 10 µM. The IC50 (769-P) was 0.036 µM and the IC50 (SW1088) was 9.02 µM.
